The results in this text go back to article PMC9990147 (Nature, 2021).

The target of one assay is T1, human PCFT (SLC46A1) (Homo sapiens, UniProt Q96NT5).
T1 sequence (Q96NT5 1-459): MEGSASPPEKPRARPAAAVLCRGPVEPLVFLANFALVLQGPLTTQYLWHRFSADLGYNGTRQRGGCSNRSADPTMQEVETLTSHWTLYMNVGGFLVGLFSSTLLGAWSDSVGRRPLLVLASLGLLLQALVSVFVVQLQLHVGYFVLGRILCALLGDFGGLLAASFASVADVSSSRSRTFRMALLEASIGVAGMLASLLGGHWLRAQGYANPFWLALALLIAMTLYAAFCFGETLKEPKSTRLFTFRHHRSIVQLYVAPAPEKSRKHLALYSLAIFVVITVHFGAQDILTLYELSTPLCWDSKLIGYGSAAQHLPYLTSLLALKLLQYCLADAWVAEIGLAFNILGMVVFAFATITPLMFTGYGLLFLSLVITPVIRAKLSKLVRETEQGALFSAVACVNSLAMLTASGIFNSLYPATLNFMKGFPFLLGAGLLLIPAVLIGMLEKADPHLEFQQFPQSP
The assay can be described thus: cell-based 3H-folic acid uptake at pH […] and […].

Assay [1] addresses T2, PCFT (proton-coupled folate transporter, SLC46A1) (Gallus gallus, UniProt F1NJ67).
T2 sequence (F1NJ67 1-473): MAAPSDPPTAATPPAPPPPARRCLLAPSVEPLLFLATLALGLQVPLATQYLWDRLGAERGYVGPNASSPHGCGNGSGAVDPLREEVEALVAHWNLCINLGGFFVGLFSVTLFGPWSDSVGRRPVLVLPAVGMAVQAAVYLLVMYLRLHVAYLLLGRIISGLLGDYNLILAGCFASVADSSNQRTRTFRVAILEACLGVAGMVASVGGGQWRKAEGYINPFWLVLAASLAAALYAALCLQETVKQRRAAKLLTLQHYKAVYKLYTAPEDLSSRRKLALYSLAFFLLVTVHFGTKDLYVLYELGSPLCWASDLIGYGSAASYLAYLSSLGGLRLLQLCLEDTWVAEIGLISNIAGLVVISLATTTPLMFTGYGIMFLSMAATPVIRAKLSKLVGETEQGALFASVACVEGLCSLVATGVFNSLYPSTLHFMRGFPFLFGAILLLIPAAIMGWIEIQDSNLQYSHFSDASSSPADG
Kind of assay: cryo-EM structure at […] Å. The class given is cell-based.

For assay [2], the target named is T3, biotinylated chicken PCFT with C-terminal Avi-tag (Gallus gallus (UniProt E6Y8U5 sequence), biotin on the C-terminal Avi-tag).
T3 chain: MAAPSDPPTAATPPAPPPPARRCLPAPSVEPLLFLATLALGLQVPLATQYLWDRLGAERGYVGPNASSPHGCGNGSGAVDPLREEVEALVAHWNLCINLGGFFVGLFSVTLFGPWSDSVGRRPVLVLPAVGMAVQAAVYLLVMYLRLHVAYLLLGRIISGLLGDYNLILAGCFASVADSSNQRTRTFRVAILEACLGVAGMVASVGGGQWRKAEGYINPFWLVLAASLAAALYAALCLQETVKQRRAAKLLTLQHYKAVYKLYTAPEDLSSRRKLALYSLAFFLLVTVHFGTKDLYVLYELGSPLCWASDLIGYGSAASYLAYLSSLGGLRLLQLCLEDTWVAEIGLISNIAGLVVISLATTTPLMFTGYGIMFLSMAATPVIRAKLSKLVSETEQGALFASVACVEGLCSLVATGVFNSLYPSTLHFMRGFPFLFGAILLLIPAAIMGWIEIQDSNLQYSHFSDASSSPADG
The assay can be described thus: BLI.

Regarding `Nc1nc(=O)c2nc(CNc3ccc(C(=O)N[C@@H](CCC(=O)O)C(=O)O)cc3)cnc2[nH]1` [FA, folic acid], the “cell-based 3H-folic acid uptake at pH 5.5 and 7.5” value at human PCFT (SLC46A1) was “The human and chicken homologues transport similar amounts of folic acid to each other and do so only at acidic pH”. A word on the IC50: it is the concentration that inhibits the measured activity by half. The low end stands for greater potency, the high end for weaker potency. Consider `Nc1nc2[nH]cc(CCc3ccc(C(=O)N[C@@H](CCC(=O)O)C(=O)O)cc3)c2c(=O)[nH]1` [PMX, pemetrexed], for which half-maximal inhibition in assay [1] (IC50) was put at 900 nM.

B1: PCFT nanobody (high-affinity inhibitory nanobody from a naive llama library) (VHH)
VHH: QVQLVESGGGLVQPGGSLRLSCAASGFTFSRYWMYWVRQAPGKGPEWLSHMNPSGSDIKYTDSVKGRFTISRDNAKNTLYLQMNSLKPDDTAVYYCVADRRALGSPEYWGQGTQVTVSS
What is called Kd is the free concentration of one partner at which half of the binding sites on the other are occupied at equilibrium, for simple one-to-one binding. The low end stands for higher affinity, the high end for lower affinity. In assay [2], B1 displayed a dissociation constant Kd of 8 nM.
